According to patent publication US20150079089A1, “EMP2 REGULATES ANGIOGENESIS IN CANCER CELLS THROUGH INDUCTION OF VEGF” (THE REGENTS OF THE UNIVERSITY OF CALIFORNIA, priority 2012, published 2015):
Entries after “also recorded” stand apart in the source; their conditions may differ.

Assays:
[1] = test system: HIF-1a; assay: HIF-1a expression by Western blot in HEC1a/EMP2 cells treated with kinase inhibitors in a hypoxic chamber; format: cell-based, human; conditions: 24 hrs, 1.0% hypoxic chamber
Method: To determine if EMP2 expression altered VEGF expression and secretion, cells were placed in a hypoxic chamber for 24 hours. EMP2 expression directly correlated with VEGF protein levels (FIG. 4B) as well as with secreted protein (FIG. 4C). […] Western blot analysis was carried out by Cells were lysed in Laemmli buffer. Proteins were separated by SDS-PAGE, transferred to a nitrocellulose membrane (Amersham Biosciences), and stained with Ponceau S (Sigma-Aldrich, St. Louis, Mo.) to determine transfer efficiency. Membranes were blocked with 10% low fat milk in PBS containing 0.1% Tween 20 and probed with EMP2 antisera (1:1000), anti-VEGF (Santa Cruz Biotech), antiHIF-1a (1:800; BD Biosciences), anti-PPAR-y (Santa Cruz Biotech), anti-p-Src (Cell Signaling, Danvers). Protein bands were visualized using a horseradish peroxidase (HRP)-labeled secondary antibody (BD Biosciences) followed by chemiluminescence (ECL; Amersham Biosciences). Band intensities were quantified using the NIH program Image J as above. To account for loading variability β-actin was used to normalize each sample. At least three independent experiments were performed and, where indicated, the results were evaluated for statistical significance using a Student's t-test (unpaired, one-tail). A level of P<0.05 was considered to be statistically significant.
In some experiments, inhibitors were added to determine the contribution of specific pathways to HIF-1a expression. HEC1a/EMP2 cells were treated with 10 μM of the kinase inhibitor Ly294002 (Cell Signaling), the EGFR inhibitor Erlotinib e; 10 μM, Genentech), or the Src family tyrosine kinase inhibitor Dasatinib e; 10 μM, Bristol-Myers Squibb). Efficacy of the inhibitors was tested at the manufacturer's recommended dosage, and potential toxicity was measured using trypan-blue exclusion. Samples were harvested and probed by SDS-PAGE/Western blot analysis as above […]
Using common inhibitors of AKT, PI3-kinase, EGFR, and Src tyrosine kinases, HEC1a/EMP2 cells were treated with these agents while in a hypoxic chamber.

[2] = test system: HUVEC; conditions: supernatants of HEC1a/RIBO or HEC1a/shRNA 911; 20 or 50 µg/ml
Source text: Migration assays. […] The experiment was repeated three times.

[3] = test system: human aortic endothelial cell (HAEC); assay: Boyden chamber migration of HAEC towards cultured tumor cell supernatants; format: cell-based; conditions: added at 10μg/ml to the cultured tumor cell supernatant
Method: FIG. 4 depicts that EMP2 regulates VEGF expression. (A) A Boyden chamber assay was used to determine human aortic endothelial cell (HAEC) response to cultured tumor cell supernatants. In some experiments, the antiVEGF antibody Avastin® which binds soluble VEGF was added at 10μg/ml to the cultured supernatant. (B) The expression of total VEGF was measured using Western blot analysis. EMP2 expression was visualized to verify modulation of EMP2 in the cell lines; β-Actin was used as the loading control. (C) Secreted VEGF was measured using an ELISA. (D) Semi-quantitative expression of VEGF mRNA was determined using RTPCR. The experiment was repeated three times with similar results, and a representative blot is shown. GAPDH expression serves as a loading control. (E) Left, To determine the mechanism for VEGF regulation, HIF-1 a and PP ARy expression was determined using Western blot analysis. β-Actin expression serves as the loading control. Right, Quantization of HIF-1a expression relative to β-Actin for three independent experiments. The data represents the mean±SEM. […] Appropriate vehicle control cells are included. Western blot analysis was used to show the expression of EMP2, HIF-1a, and β-Actin in these cells.
Human umbilical vein endothelial cells (HUVEC) from passage 2 were purchased from BD Biosciences (San Diego, Calif.) and used between passages 3 and 7 for all experiments. […]

Compound	EMP2-induced HIF-1a expression [1]	also measured
C#Cc1cccc(Nc2ncnc3cc(OCCOC)c(OCCOC)cc23)c1 [erlotinib, Erlotinib]	produced a similar effect; also recorded: sufficient to inhibit its expression	
VEGF		HUVEC cell tube formation [2]: sufficient to induce HUVEC cell tube formation
O=c1[nH]c2ccccc2n1C1CCN(Cc2ccc(-c3nc4cc5[nH]cnc5cc4nc3-c3ccccc3)cc2)CC1 [AKTi, Akt inhibitor VIII]	did not alter HIF-1a expression	EMP2-induced HIF-1a expression ([1]; listed as AKT inhibitors): did not suppress
CC(C)(C)n1nc(-c2ccc(Cl)cc2)c2c(N)ncnc21 [PP2]	reversed	
Bevacizumab		HAEC migration [3]: reduced HAEC migration to control levels
